Source: patent US8334316B2, “Substituted organosulfur compounds and methods of using thereof” (ACEA Biosciences, Inc., priority 2004, dated 2012)
Several values for one entry are separate records, joined by “and”; a condition that tells them apart may be missing. Equal entries are not always repeated. Marks after values point to notes of the source that are not given here.

Legend:
[1] = system: P388 lymphocytic leukemia; assay: Murine P388 lymphocytic leukemia model (intraperitoneal transplantation), life span; type: in vivo, mouse; settings: for Average life span X ± SD: observed within 30 days
Procedure: Both male and female mice were used.
Preparation and Administration of Test Compounds.
To prepare cancer cells for the P388 murine lymphocytic leukemia model, ascites of a P388 leukemia-bearing mouse were removed under sterile condition. The ascites were diluted in normal saline (1:6 for ascites to normal saline) to prepare cell suspension. 0.2 mL of the cell suspension was then injected intraperitoneally. […] The life span of carrier mice was determined within 30 days. The life span ratio comparing to the negative control group of the carrier mice in each compound treatment group was calculated according to the formula: Life span ratio %=average life span for the compound treatment group/average life span for the negative control group×100% (4)

HCT-8 human colon cancer = HCT-8 human colon cancer xenograft in nude mice (Example 3); type: in vivo; settings: for tumor inhibition rate %: vs solvent control
Source text: Both male and female mice were used. […] Test control. […] Preparation and Administration of Test Compounds. […] For human tumor xenograft model, all used materials, including animal food, animal cage, supporting materials and apparatus contacted by animals, were high-pressure sterilized. Nude mice were maintained in laminar flow shelves under SPF condition. After tumor transplantation, mouse weight and tumor size in each compound dosage group were dynamically monitored and plotted.

[2] = system: ao10/17 human ovarian cancer; assay: ao10/17 human ovarian cancer xenograft in nude mice (Example 4); type: in vivo; settings: for tumor inhibition rate %: vs solvent control
Procedure: Only female mice were used in this study. […] The high, middle and low doses of ACEA100108 were 50, […] and 8 mg/kg/d, respectively.
Preparation and Administration of Test Compounds. […] The high, middle and low dose of compound ACEA100108 was 50, 20 and 8 mg/kg, respectively.
The tumor tissues were grounded in normal saline (1:6 for tumor volume to saline volume) and tumor cell suspensions were prepared in the normal saline.
For the human ovarian cancer xenograft model, all used materials, including animal food, animal cage, supporting materials and apparatus contacted by animals, were high-pressure sterilized. Nude mice were maintained in laminar flow shelves under SPF condition. After tumor transplantation, mouse weight and tumor size in each compound dosage group were dynamically monitored and plotted. The tumor size was determined by measuring the major axis (a) and minor axis (b) of the tumor, and tumor volume was calculated according to the equation (3) in Example 3.

[3] = system: microtubules in COS cells; assay: Microtubule network in cultured COS cells (anti-tubulin immunofluorescence, confocal microscopy); type: cell-based
mouse Lewis lung cancer = assay: In vivo antitumor efficacy, mouse Lewis lung cancer model, Example 3 (ACEA100108); settings: for Inhibition rate (%): vs solvent control
Procedure: For human tumor xenograft models, cancer cells were passed twice in vivo before being transplanted into the nude mice for the study. Cultured human cancer cells in flask were first xenograft-transplanted in immunodeficient nude mice. After the cancer cells grew to a tumor of certain sizes in the nude mice, the tumor was removed form the nude mice and tumor tissues were dissected. The cell suspensions were prepared from the dissected tumor tissue and transplanted back to immunodeficient nude mice again (i.e. the second passage of cancer cells in human cancer xenograft-transplanted model). After the cancer cells grew to certain size, the tumor was removed from nude mice and the tumor tissues were dissected. The cell suspensions were prepared from dissected tissues and were used for the study of human cancer xenograft models described here.
Both male and female mice were used. However, for each experiment, animals of same sex were used. For the mouse transplanted tumor model, the numbers of animals tested were as follows: 10 for each dose group, 10 for positive control group and 20 for negative control group. For human tumor xenograft model, the numbers of animals tested were as follows: 6 for each dose group, 6 for positive control group and 12 for negative control group.
Test control. For negative control, each mouse was administered intravenously with the solvent only having the same volume and same concentration as those used in high dose ACEA100108 test, once a day, for 7 consecutive days. […] In a reference group, DBTS was administered intravenously at 50 mg/kg, once a day for 7 consecutive days.
Preparation and Administration of Test Compounds. […] Each time before use, this solution was diluted in normal saline to achieve desired ACEA100108 concentrations. Each mouse (about 20 g in weight) was administered intravenously with the compound solution of 0.5 mL at a controlled injection speed of 0.5 ml/0.5 min. 24 hrs after the tumor transplantation, intravenous injections of compound solutions into carrier mice were performed once a day, for consecutive 7 or 10 days.
Preparation of Tumor Cells for Transplantation and Determination of Compound Efficacy. To prepare the cancer cells for mouse Lewis lung cancer model, human breast cancer xenograft model and human colon cancer xenograft model, the fast growing tumors were first removed from the transplanted tumor mice. The tumor tissues were dissected and tumor cell suspensions were prepared in normal saline to have a concentration of 2-4×10^7 cells/ml. 0.2 ml of cell suspension was subcutaneously injected into the axillary region (right-side) of each mouse. […] Between two and four weeks after transplantation, mice were sacrificed and the transplanted tumors were removed from experimental mice.

[4] = 50 mg/kg/d iv x7 qd, 7 day after transplantation
[5] = 50 mg/kg/d iv x7 qd, 25 d (end), listed as ACEA100101
[6] = 50 mg/kg iv x7 qd, 7 D after transplantation
[7] = 10 mg/kg/d iv x7 qd, 7 day after transplantation

Which “animal No. beginning/end (survivors)” value ([1]; 50 mg/kg/d iv x7 qd) does the source give for `c1ccc(CSSSCc2ccccc2)cc1` [DBTS, Dibenzyl trisulfide] here?
Its value is 10/0.

What about the “Average life span X ± SD” value ([1]; 50 mg/kg/d iv x7 qd) of the same molecule?
The value was 10.6 ± 1.26.

What about the “Life span ratio %” value ([1]; 50 mg/kg/d iv x7 qd, vs solvent control) of the same molecule?
Its value is 109.28%.

And the “TV inhibition rate % T/C” value (HCT-8 human colon cancer; 50 mg/kg/d iv x7 qd)?
The value was 32.17%.

And the “Tumor weight” value (HCT-8 human colon cancer; 50 mg/kg/d iv x7 qd)?
Its value is 0.825 ± 0.07 g.

And the “Mouse Body weight” value (HCT-8 human colon cancer; 50 mg/kg/d iv x7 qd, 0 Day (beginning), listed as ACEA100101)?
The value was 18.2 g and 18.2 ± 1.2 g.

What about the “Mouse Body weight” value (HCT-8 human colon cancer; 50 mg/kg/d iv x7 qd, 7 d) of the same molecule?
The value was 18.8 ± 1 g.

And the “Mice with palpable tumor / total mice” value (HCT-8 human colon cancer; [4])?
The value was 4/6††.

And the “Tumor volume (cm^3)” value (HCT-8 human colon cancer; [4])?
The value was 0.01 cm^3.

And the “Mouse Body weight” value (HCT-8 human colon cancer; 50 mg/kg/d iv x7 qd, 14 d)?
Its value is 19.5 ± 1 g.

And the “Tumor volume (cm^3)” value (HCT-8 human colon cancer; 50 mg/kg/d iv x7 qd, 14 d)?
Its value is 0.031 ± 0.02 cm^3.

What about the “Mouse Body weight” value (HCT-8 human colon cancer; 50 mg/kg/d iv x7 qd, 21 d) of the same molecule?
The value was 20.7 ± 0.8 g.

What about the “Tumor volume (cm^3)” value (HCT-8 human colon cancer; 50 mg/kg/d iv x7 qd, 21 d) of the same molecule?
The value was 0.204 ± 0.03 cm^3.

And the “Mouse Body weight” value (HCT-8 human colon cancer; [5])?
Its value is 23.0 g and 23 ± 1.3 g.

What about the “Tumor volume (cm^3)” value (HCT-8 human colon cancer; [5]) of the same molecule?
Its value is 0.502 cm^3 and 0.502 ± 0.18 cm^3.

And the “tumor inhibition rate %” value (HCT-8 human colon cancer; 50 mg/kg/d iv x7 qd)?
Its value is 46.08%.

What about the “Body weight of mice” value ([2]; 50 mg/kg iv x7 qd, 0 d (beginning), listed as ACEA100101) of the same molecule?
The value was 17.3 g and 17.3 ± 1 g.

What about the “Mice with palpable tumor / total mice” value [2, 6] of the same molecule?
The value was 2/6.

And the “Tumor volume (cm^3)” value [2, 6]?
Its value is 0.01 cm^3.

What about the “Body weight of mice” value ([2]; 50 mg/kg iv x7 qd, 7 d) of the same molecule?
Its value is 17.3 ± 1.4 g.

And the “Body weight of mice” value ([2]; 50 mg/kg iv x7 qd, 14 d)?
The value was 18.8 ± 1.2 g.

What about the “Mice with palpable tumor / total mice” value ([2]; 50 mg/kg iv x7 qd, 14 d) of the same molecule?
The value was 6/6.

What about the “Tumor volume (cm^3)” value ([2]; 50 mg/kg iv x7 qd, 14 d) of the same molecule?
The value was 0.01 cm^3.

And the “Body weight of mice” value ([2]; 50 mg/kg iv x7 qd, 21 d)?
Its value is 19.5 ± 1 g.

And the “Tumor volume (cm^3)” value ([2]; 50 mg/kg iv x7 qd, 21 d)?
The value was 0.129 ± 0.01 cm^3.

And the “Tumor volume (cm^3)” value ([2]; 50 mg/kg iv x7 qd, 24 d)?
Its value is 0.225 ± 0.04 cm^3.

And the “Body weight of mice” value ([2]; 50 mg/kg iv x7 qd, 24 d (end), listed as ACEA100101)?
The value was 21.3 g and 21.3 ± 1.2 g.

What about the “Tumor weight” value ([2]; 50 mg/kg/d iv x7 qd) of the same molecule?
The value was 0.602 ± 0.10 g.

What about the “tumor inhibition rate %” value ([2]; 50 mg/kg/d iv x7 qd) of the same molecule?
The value was 57.30%.

What about the Microtubule network appearance ([3]; 4 hours exposure) of the same molecule?
Its Microtubule network appearance is “The microtubule network is completely disrupted”.

What about the “Cell viability / microtubule network” value ([3]; 24 hours, 6 uM or 18 uM) of the same molecule?
The value was “no cells are viable”.

What about the “Animal No. beginning/end (survival)” value (mouse Lewis lung cancer; 25 mg/kg/d iv x7 qd) of the same molecule?
Its value is 10/10.

What about the “Animal weight (g) beginning” value (mouse Lewis lung cancer; 25 mg/kg/d iv x7 qd) of the same molecule?
Its value is 20.5 g.

And the “Animal weight (g) end” value (mouse Lewis lung cancer; 25 mg/kg/d iv x7 qd)?
Its value is 23.6 g.

What about the “Tumor weight” value (mouse Lewis lung cancer; 25 mg/kg/d iv x7 qd) of the same molecule?
The value was 1.14 ± 0.17 g.

What about the “Inhibition rate (%)” value (mouse Lewis lung cancer; 25 mg/kg/d iv x7 qd) of the same molecule?
Its value is 57.93%.

What about the “Animal No. beginning/end (survival)” value (mouse Lewis lung cancer; 100 mg/kg/d iv x7 qd) of the same molecule?
Its value is 10/6.

And the “Animal weight (g) beginning” value (mouse Lewis lung cancer; 100 mg/kg/d iv x7 qd)?
The value was 20.7 g.

What about the “Animal weight (g) end” value (mouse Lewis lung cancer; 100 mg/kg/d iv x7 qd) of the same molecule?
The value was 23.1 g.

And the “Tumor weight” value (mouse Lewis lung cancer; 100 mg/kg/d iv x7 qd (text: administered only 5 times because of toxicity))?
Its value is 1.00 ± 0.15 g.

And the “Inhibition rate (%)” value (mouse Lewis lung cancer; 100 mg/kg/d iv x7 qd (text: only 5 times because of toxicity))?
Its value is 63.10%.

Which “animal No. beginning/end (survivors)” value ([1]; 10 mg/kg/d iv x7 qd) does the source give for `CC(=O)O[C@H]1C(=O)[C@@]2(C)[C@H]([C@H](OC(=O)c3ccccc3)[C@]3(O)C[C@H](OC(=O)[C@H](O)[C@@H](NC(=O)c4ccccc4)c4ccccc4)C(C)=C1C3(C)C)[C@]1(OC(C)=O)CO[C@@H]1C[C@@H]2O` [Taxol, paclitaxel, reference compound] here?
Its value is 10/0.

What about the “Average life span X ± SD” value ([1]; 10 mg/kg/d iv x7 qd) of the same molecule?
Its value is 10.5 ± 1.18.

And the “TV inhibition rate % T/C” value (HCT-8 human colon cancer; 10 mg/kg/d iv x7 qd)?
Its value is 44.45%.

And the “Tumor weight” value (HCT-8 human colon cancer; 10 mg/kg/d iv x7 qd)?
The value was 1.02 ± 0.11 g.

What about the “Mice with palpable tumor / total mice” value (HCT-8 human colon cancer; [7]) of the same molecule?
Its value is 6/6††.

And the “Tumor volume (cm^3)” value (HCT-8 human colon cancer; [7])?
Its value is 0.01 cm^3.

And the “Tumor volume (cm^3)” value (HCT-8 human colon cancer; 10 mg/kg/d iv x7 qd, 14 d)?
Its value is 0.116 ± 0.03 cm^3.

And the “Tumor volume (cm^3)” value (HCT-8 human colon cancer; 10 mg/kg/d iv x7 qd, 25 d (end))?
The value was 0.694 cm^3 and 0.694 ± 0.15 cm^3.

And the “tumor inhibition rate %” value (HCT-8 human colon cancer; 10 mg/kg/d iv x7 qd)?
The value was 33.33%.

And the “Tumor volume (cm^3)” value ([2]; 10 mg/kg iv x7 qd, 7 D after transplantation)?
The value was 0.01 cm^3.

And the “Tumor volume (cm^3)” value ([2]; 10 mg/kg iv x7 qd, 14 d)?
The value was 0.033 ± 0.02 cm^3.

And the “Tumor volume (cm^3)” value ([2]; 10 mg/kg iv x7 qd, 21 d)?
The value was 0.196 ± 0.03 cm^3.

And the “Tumor volume (cm^3)” value ([2]; 10 mg/kg iv x7 qd, 24 d)?
The value was 0.349 ± 0.08 cm^3.

And the “Tumor weight” value ([2]; 10 mg/kg/d iv x7 qd)?
The value was 0.77 ± 0.12 g.

What about the “tumor inhibition rate %” value ([2]; 10 mg/kg/d iv x7 qd) of the same molecule?
The value was 45.39%.

And the Microtubule network appearance ([3]; 4 hours exposure)?
The Microtubule network appearance was “Microtubules appear bundled in some locations”.

What about the Microtubule network appearance ([3]; 24 hours exposure, increasing dosage) of the same molecule?
The Microtubule network appearance was “increased bundling and the short microtubules persist”.

And the “Animal weight (g) beginning” value (mouse Lewis lung cancer; 10 mg/kg/d iv x7 qd)?
The value was 20.4 g.

And the “Animal weight (g) end” value (mouse Lewis lung cancer; 10 mg/kg/d iv x7 qd)?
The value was 23.8 g.

What about the “Tumor weight” value (mouse Lewis lung cancer; 10 mg/kg/d iv x7 qd) of the same molecule?
The value was 1.52 ± 0.15 g.

What about the “Inhibition rate (%)” value (mouse Lewis lung cancer; 10 mg/kg/d iv x7 qd) of the same molecule?
The value was 43.91%.
